Drawing on the NIST ThermoML archive (doi:10.1016/j.tca.2014.06.017), this text covers Normal melting temperature for one compound.

For this data set the following is noted: Crystal; DTA.

Numbers after ± are expanded uncertainties.

Take `OC[C@@H](O)[C@@H](O)[C@H](O)[C@H](O)CO` [D-mannitol]: the Normal melting temperature amounted to 162 ± 11 °C.
